Patent publication US7875638B2, “Synthesis of epothilones, intermediates thereto, analogues and uses thereof” (Sloan-Kettering Institute for Cancer Research, priority 2002, dated 2011)
Where two headings read alike, the source gives them in different places. Marks after values point to notes of the source that are not given here.

Assays:
[1] = tested on: Ovcar-3; test: XTT cell growth inhibition, Ovcar-3; assay type: cell-based; conditions: Homo sapiens
[2] = tested on: MOLP-5; test: XTT cell growth inhibition, MOLP-5; assay type: cell-based; conditions: Homo sapiens, read-out: IC50 (nM), MOLP-5
[3] = tested on: Human CD34+ stem cells; test: Apoptosis and 2 weeks progenitor assays on CD34+ stem cells; assay type: cell-based; conditions: 24 hours incubation, umbilical cord blood CD34+
Method: Then drugs were washed out and annexin V staining was performed. Solid area represents vehicle control and open area represents drug treated group. There is no obvious increased apoptosis of non-cycling human CD34+ cells with short period of exposure to epothilones.
Drug cytotoxicity to hematopoietic stem cells is always a major concern. Human CD34+ stem cells were isolated from umbilical cord blood and incubated with either dEpoB or Fludelone alone for 24 hours. After washing out the drugs, apoptosis assays and 2 weeks progenitor assays were performed to evaluate the influence of epothilone to stem cells.

[4] = tested on: CCRF-CEM/Taxol; assay type: cell-based, human; conditions: Homo sapiens, CCRF-CEM
[5] = Octanol-water partition (POW) number by HPLC; assay type: physicochemical; conditions: HPLC estimate, pH 7.4 buffer; read-out: Lipophilicity octanol/water partition (POW)
Method: Determination of partition of octanol-water (POW) number. An HPLC method is used to estimate octanol-water partition. An Agilent 1100 HPLC system is used with an eclipse XDB C18 column 4.6×250 mm with a mobile phase of 60% acetonitrile/40% 25 mM potassium phosphate buffer at pH 7.4 with a flow rate of 0.8 ml per min. and the eluent is monitored at 250 nm. The standards used are benzyl alcohol, acetophenone, benzophenone, naphthalene, diphenyl ether and dibenzyl with known POW of […] respectively. Sodium dichromate is used to evaluate time zero which is 2.5 min and the retention times for the standards are 3.9, 5.4, 10.6, 14, 18.7 and 19.8 min, respectively. The k value is calculated by the formula of k=(trt−t0)/t0. Linear regression of log k vs. log POW gives a straight line with r^2=0.966. This graph is used to evaluate the POW value of the epothilone analogs.

[6] = tested on: Human marrow stromal cell lines, HS-27A and HS-5; test: XTT cell proliferation, normal stromal cells; conditions: read-out: IC50, stromal lines HS-27A and HS-5
Description: Human marrow stromal cell lines, HS-27A and HS-5 immortalized by E6/E7 genes, have normal marrow stromal function, which support stem cell self-renewal, and proliferation.

[7] = tested on: CAG; test: XTT cell growth inhibition, CAG; assay type: cell-based; conditions: Homo sapiens, read-out: IC50 (nM), CAG
[8] = tested on: caspase 3; test: Caspase 3 activation by Western blot; assay type: cell-based, human; conditions: myeloma cells
Description: It is not clear whether caspase is involved in this process. Firstly, we investigated the activation of caspase 3, an effector caspase in the caspase pathway, in myeloma cells, by Western blot. […] Immunohistochemical staining of CAG myeloma cells using antibody specific to cleaved caspase-3 was used to show cytoplasmic and perinuclear localization features in apoptotic cells. […] Secondly, we attempted to assay the activity of caspase 8 and 9, initiator caspase in the caspase pathway, by fluorometric method. […] Note that increased caspase 9 activity was more prominent than caspase 8. The signals triggering the activation of caspase 8 or 9 are actively under investigation.

[9] = tested on: human mammary carcinoma MX-1 xenograft; test: MX-1 xenograft in nude mice; conditions: for Body weight on the 16th day after treatment, % of the pretreatment control: Q2Dx6
[10] = tested on: Ovarian cancer lines; test: XTT cell growth inhibition, ovarian cancer lines (mean); assay type: cell-based; conditions: Homo sapiens, read-out: Mean IC50, ovarian lines
[11] = tested on: MRC-5; test: XTT cell growth inhibition, MRC-5; assay type: cell-based, human
[12] = tested on: SKI-DLBCL; test: XTT cell growth inhibition, SKI-DLBCL; assay type: cell-based; conditions: Homo sapiens; Lymphoma; XTT tetrazonium assay
[13] = tested on: primary CD138 MM cells; test: Apoptosis of primary myeloma cells; assay type: cell-based, human; conditions: cells obtained from patient marrow
[14] = tested on: HT-29; test: XTT cell growth inhibition, HT-29; assay type: cell-based; conditions: Homo sapiens
[15] = tested on: CAG myeloma cell lines; test: Annexin V staining, CAG; assay type: cell-based, human; conditions: 24 hours treatment
Description: In early apoptotic cells, the membrane phospholipids phosphatidylserine (PS) is translocated from the inner to the outer leaflet of the plasma membrane, thereby exposing PS to the external cellular environment. Annexin V is a 35-36 kD Ca^2+ dependent phospholipids-binding protein that has a high affinity for PS, and binds to cells with exposed PS. In conjunction with a vital dye such as 7-amino-actinomycin (7-AAD) staining dead cells, this assay allows to identify early apoptotic cells. […] Note that X-axis is Annexin staining and Y-axis is 7-AAD staining.

[16] = tested on: Ovcar-4; test: XTT cell growth inhibition, Ovcar-4; assay type: cell-based; conditions: Homo sapiens
[17] = tested on: RPMI8226 myeloma cells; test: Pulse exposure, washout and cell count; assay type: cell-based, human; conditions: for Cell death after pulse exposure: 24 hrs exposure
[18] = tested on: HS-27A; test: XTT cell growth inhibition, HS-27A; assay type: cell-based; conditions: Homo sapiens, read-out: IC50 (nM), HS-27A
[19] = tested on: human lung carcinoma xenograft (A549); test: A549 xenograft in nude mice; conditions: for Tumor eradication: 29: after two more doses, dEpoB: 30 mg/kg, Q2Dx6
[20] = tested on: OPM-2 myeloma cells; test: Cell cycle analysis (propidium iodide DNA staining), OPM-2; assay type: cell-based, human
Description: FIG. 95 is cell cycle analysis as determined by Propidium iodide DNA staining. […] The two drugs induced the same patter of cell cycle arrest.

[21] = tested on: OPM-2; test: XTT cell growth inhibition, OPM-2; assay type: cell-based; conditions: Homo sapiens

## C/C1=C/CC(/C(C)=C/c2csc(C)n2)OC(=O)C[C@H](O)C(C)(C)C(=O)[C@H](C)[C@@H](O)[C@@H](C)CCC1 (stereo partly drawn) [Compound 1, 12,13-desoxyepothilone B, reference compound]
[1]; OVCAR-3, read-out: IC50 (nM), Ovcar-3
  IC50: 14 ± 3.6 nM
[2]
  IC50: 68.6 ± 5.5 nM
[3]
  Toxicity on non-cycling stem cells: no significant toxicity
[4]; 72 h, read-out: IC50 (μM), CCRF-CEM/Taxol
  IC50: 0.0057 µM
[4]; 72 h, read-out: IC50, C/Taxol (μM)
  IC50: 0.0046 µM
[4]; 72 h, read-out: IC50, CCRF-CEM/Taxol
  IC50: 0.0046 µM
[5]
  chromatographic logP: 4.4
[6]
  IC50: 90 to 100 nM
[7]
  IC50: 61.3 ± 4.2 nM
[8]
  Cleaved caspase 3 (Western blot): increased 17 kd cleaved caspase 3
[9]; mouse, in vivo
  Changes of body weight (%) on day 4 after stopping administration: −25.3 ± 2.1%
  Changes of body weight (%) on day 8 after stopping administration: −9.1 ± 4.1%
[10]
  IC50: 16.5 nM
[11]; Homo sapiens, MRC5, read-out: IC50 (nM), MRC-5
  IC50: 8.2 ± 4.3 nM
[12]
  IC50: 72 ± 9.8 nM
[13]
  Tumor apoptosis within 24 hrs: not
[14]; HT-29, read-out: IC50 (nM), HT-29
  IC50: 7.2 ± 2.2 nM
[15]
  Apoptosis (Annexin V / 7-AAD): majority of cells either enter apoptosis or are dead
[16]; OVCAR-4, read-out: IC50 (nM), Ovcar-4
  IC50: 16 ± 2.5 nM
[17]; 4-8 hrs exposure, washout, incubation up to 48 hrs
  Decrease of the number of cells from input: slowed cell expansion
[17]
  Cell death after pulse exposure: all cells being dead by 48 hrs
[17]; one hour exposure, washout, 48 hrs
  Decrease of tumor cell numbers: reduced but did not prevent tumor cell expansion
[18]
  IC50: 100 ± 10 nM
[19]
  Tumor eradication: no tumor eradication
[20]
  Cell cycle arrest: arrested in G2M phase starting from 6 hours and absolutely blocked at 24 hours
[21]; OPM-2, read-out: IC50 (nM), OPM-2
  IC50: 38.9 ± 3.3 nM

## C/C(=C\c1csc(C)n1)[C@@H]1C/C=C(/C(F)(F)F)C/C=C/[C@H](C)[C@H](O)[C@@H](C)C(=O)C(C)(C)[C@@H](O)CC(=O)O1 [Compound 29, 26-trifluoro-trans-9,10-dehydro-12,13-desoxyepothilone B]
[1]; OVCAR-3, Ovarian Ca, XTT tetrazonium assay, read-out: IC50 (nM), Ovcar-3
  IC50: 1.1 ± 0.4 nM
[2]; Myeloma, XTT tetrazonium assay
  IC50: 14.4 ± 2.6 nM
[3]
  Toxicity on non-cycling stem cells: no significant toxicity
[4]; XTT assay following 72 h inhibition, Table 1-2, read-out: IC50 (μM), CCRF-CEM/Taxol
  IC50: 0.0057 µM
[4]; XTT assay following 72 h inhibition, Table 1-3, read-out: IC50, C/Taxol
  IC50: 0.0057 µM
[5]
  chromatographic logP: 3.3
[6]
  IC50: 90 to 100 nM
[7]; Myeloma, XTT tetrazonium assay
  IC50: 12 ± 1.8 nM
[8]
  Cleaved caspase 3 (Western blot): increased 17 kd cleaved caspase 3
[9]; 10 mg/kg, Q2DX12
  Body weight gain during the last three doses: 6%
  Maximal body weight decrease: 12%
[9]; 20 mg/kg
  Tumor free after Q2Dx6 6 hr-iv. infusion (mice): four out of four
  Body weight on the 16th day after treatment, % of the pretreatment control: 109%
[9]; 20 mg/kg and 30 mg/kg, Q2Dx6, 6 hour infusions
  Therapeutic outcome in MX-1 xenograft model: curative
[9]; 20 mg/kg or 30 mg/kg Q2Dx6, i.v.-6 hr infusion
  Time for body weight to return to pretreatment control level after suspension of treatment: 12 to 18 days
[9]; 20 mg/kg, Q2Dx6, 6 hour infusion
  Reappearance of the tumor on the 20th day after stopping treatment: no reappearance
[9]; 20 mg/kg, Q2Dx6, 6 hr iv infusion
  Tumor reappearance on 27th day after stopping treatment (mice): 2 out of 4
[9]; 20 mg/kg, Q2Dx6, 6 hr iv infusion, listed as 26-trifluoro-9,10-dehydro-12,13-dexoxy-epothilone B
  Tumor reappearance on 27th day after stopping treatment (mice): 2/4
[9]; 20 mg/kg, Q2Dx6, 6 hr. iv infusion
  Transient drop in body weight: up to 26%
[9]; 30 mg/kg
  Decrease in body weight without lethality: 27%
  Body weight on the 16th day after treatment, % of the pretreatment control: 98%
[9]; 30 mg/kg, Q2Dx6, 6 hour iv infusion
  Tumor disappearance earlier than the 20 mg/kg dosage: 2 to 3 days
[9]; 30 mg/kg, Q2Dx6, 6 hr iv infusion
  Relapse after suspension of treatment: absence of any relapse for over two months
[9]; Q2Dx6, 6 hour infusions
  Maximal tolerated dose: ~30 mg/kg
[9]; assuming a tumor doubling time of 4 days
  Cell kill: > 8.5 log
[9]; extra large MX-1, 25 mg/kg Q3Dx5 then Q3Dx4
  Tumor relapse after cessation of treatment: No relapse was observed on D180
[9]; female nude mice, large MX-1, 30 mg/kg orally
  Relapse (49 days after stopping treatment): no relapse on D115
[9]; female nude mice, large MX-1, 30 mg/kg orally Q2Dx7 then Q2Dx9
  Tumor disappearance: All three mice's tumor disappeared on D40, 45 and 48
[9]; mouse, in vivo
  Doses required for MX-1 tumor disappearance: nine
  Duration of MX-1 tumor disappearance: 64 days
  Mice relapsed on day 10 after suspension of treatment: 0/4
  Mouse tumors disappeared, large MX-1 tumors (0.5 g): 4/4
  Relapse after suspension of treatment: no relapse after 62 days
  Tumor disappeared during the resting period (mice): 2 out of 5
  Tumor free after Q2Dx6 6 hr-iv. infusion (mice): 4/4
  Tumor reappeared on day 10 after administration (mice): 0/4^[b]
  Tumor relapse after cessation of treatment: no tumor relapse in all 5 animals on D165
  Tumor shrinkage during the resting period of 9 days (D34-D43): > 99.3%
[9]; mouse, in vivo, iv, 25 mg/kg
  Tumor shrinkage: > 97.4%
[9]; mouse, in vivo, po, 30 mg/kg
  Tumor disappearance (mice): 2 out of 4
  Tumor disappearance after additional two doses (mice): 4 out of 4
[9]; mouse, in vivo, listed as 26-trifluoro-9,10-trans-dehdyro-epothilone D
  Tumor free following the cessation of treatment: 3.8 months
[9]; mouse, in vivo, listed as Fludelone
  Tumor free following the cessation of treatment: 4.3 months
[10]
  IC50: 1.6 nM
[11]; MRC5, Embryonic lung fibroblasts (human), XTT tetrazonium assay, read-out: IC50 (nM), MRC-5
  IC50: 7.4 ± 2.7 nM
[12]
  IC50: 60 ± 4.2 nM
[13]
  Tumor apoptosis within 24 hrs: induced tumor apoptosis within 24 hrs
[14]; HT-29, Colon Ca, XTT tetrazonium assay, read-out: IC50 (nM), HT-29
  IC50: 4 ± 1.7 nM
[15]
  Apoptosis (Annexin V / 7-AAD): majority of cells either enter apoptosis or are dead
[16]; OVCAR-4, Ovarian Ca, XTT tetrazonium assay, read-out: IC50 (nM), Ovcar-4
  IC50: 1.8 ± 0.7 nM
[17]
  Decrease of the number of cells from input: ~50%
  Decrease of tumor cell numbers: 50%
  Cell death after pulse exposure: all cells being dead by 48 hrs
[18]; Marrow stroma, XTT tetrazonium assay
  IC50: 102 ± 8 nM
[19]; 25 mg/kg, Q2DX6, twice
  Body weight decrease without lethality: ≤ 35%
[19]
  Tumor eradication: 4 of the 4
[20]
  Cell cycle arrest: arrested in G2M phase starting from 6 hours and absolutely blocked at 24 hours
[21]; OPM-2, Myeloma, XTT tetrazonium assay, read-out: IC50 (nM), OPM-2
  IC50: 8.2 ± 2.2 nM
